Target: Human DGAT2 (Homo sapiens (Human), UniProt Q96PD7)
Experiment: DGAT2 Enzymatic Activity Assay (triolein formation, LC/MS/MS)
Assay type: biochemical
Conditions: hDGAT2 Sf-9 membrane prep; 25 μM diolein, 10 μM oleoyl-CoA; room temperature
Description: Sf-9 insect cells were maintained in Grace's insect cell culture medium with 10% heated-inactivated fetal bovine serum, 1% Pluronic F-68 and 0.14 μg/m Kanamycine sulfate in Erlenmeyer flasks at 28° C. in a shaker incubator. After infection with untagged hDGAT2 baculovirus at multiplicity of infection (MOI) 0.1 for 48 hours, cells were harvested. Cell pellets were suspended in buffer containing 10 mM Tris-HC (pH 7.5), 1 mM EDTA (pH 8.0), 250 mM sucrose and Complete Protease Inhibitor Cocktail (Roche Diagnostics Corp., Indianapolis, Ill.), and sonicated on ice. Membrane fractions were isolated by ultracentrifugation (100,000×g pellet), resuspended in the same buffer, and frozen (−80° C.) for later use. The protein concentration was determined with the BCA Protein Assay kit (Pierce Biotechnology Inc., Rockford, Ill.). Expression of protein levels was analyzed by immunoblotting with goat polyclonal DGAT2 antibody C-15 and donkey anti-goat IgG HRP (Santa Cruz Biotechnology, Inc., Santa Cruz, Calif.) followed by detection with ECL reagent (GE Healthcare, Piscataway, N.J.).
LC/MS/MS analyses were performed using Thermal Fisher's LX4-TSQ Vantage system. This system consists of an Agilent binary high-performance liquid chromatography (HPLC) pumps and a TSQ Vantage triple quadrupole MS/MS instrument. For each sample, 2 μL samples from the top organic layer of in-plate liquid-liquid extraction were injected onto a Thermo Betabasic C4 column (2.1 mm×20 mm, 5 μm particle size). The samples were then eluted using the following conditions; mobile phase: MeOH/water with 0.1% ammonium format=92/8 (v/v), flow rate: 1 mL/min, temperature: 25 C. Data was acquired in positive mode using a heated electrospray ionization (HESI) interface. The operational parameters for the TSQ Vantage MS/MS instrument were a spray voltage of 3000 V, capillary temperature of 280° C., vaporizer temperature 400° C., shealth gas 60 arbitrary unit, Aux gas 40 arbitrary units, S-lens 113 and collision gas 0.16 Pascals. […] (SRM) chromatograms of triolein (Q1: 902.9>Q3:602.3) and internal standard ([…]) were collected for 40 sec. The peak area was integrated by Xcalibur Quan software. The ratio between the triolein generated in the reaction and spiked in internal standard was used to generate percentage inhibition and IC50 values. Compound percentage inhibition was calculated by the following formula: Inhibition %=1−[(compound response−low control)/(high control−low control)]×100%. Potent compounds were titrated and IC50 were calculated by 4 parameter sigmoidal curve fitting formula.
DGAT2 activity was determined by measuring the amount of enzymatic product triolein (1,2,3-Tri(cis-9-octadecenoyl)glycerol) using the membrane prep mentioned above. The assay was carried out in deep well 384 plates in a final volume of 40 μL at room temperature. The assay mixture contained the following: assay buffer (100 mM Tris.Cl, pH 7.0, 20 mM MgCl2, 5% ethanol), 25 μM of diolein, 10 μM of oleoyl-CoA and 10 ng/μL of DGAT2 membrane.

Sequence of Human DGAT2 (Q96PD7 whole entry): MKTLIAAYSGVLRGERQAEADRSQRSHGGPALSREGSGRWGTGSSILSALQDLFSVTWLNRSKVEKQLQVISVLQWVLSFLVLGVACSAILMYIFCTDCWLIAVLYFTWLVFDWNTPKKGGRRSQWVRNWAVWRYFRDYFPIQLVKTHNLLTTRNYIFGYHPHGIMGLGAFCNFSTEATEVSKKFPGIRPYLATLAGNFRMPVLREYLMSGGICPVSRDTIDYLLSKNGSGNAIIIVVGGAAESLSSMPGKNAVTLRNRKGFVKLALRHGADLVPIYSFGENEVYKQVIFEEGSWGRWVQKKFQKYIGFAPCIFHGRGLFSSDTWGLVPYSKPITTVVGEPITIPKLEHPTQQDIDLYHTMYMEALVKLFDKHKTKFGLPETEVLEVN

| SMILES | IC50 |
| --- | --- |
| Cn1nnc2ccc(-c3nn(-c4ccc(F)cc4)c4cc(C(=O)NC5(C)CCS(=O)(=O)C5)ccc34)cc21 (racemic) [Example 163, 1-(4-fluorophenyl)-3-(1-methyl-1H-benzotriazol-6-yl)-N-(3-methyl-1,1-dioxidotetrahydrothiophen-3-yl)-1H-indazole-6-carboxamide] | 340 nM |
| CC1(NC(=O)c2ccc3c(-c4ccccc4Cl)nn(-c4ccc(F)cc4)c3c2)CCS(=O)(=O)C1 (single isomer, unassigned) [Example 1-A, 3-(2-Chlorophenyl)-1-(4-fluorophenyl)-N-(3-methyl-1,1-dioxidotetrahydrothiophen-3-yl)-1H-indazole-6-carboxamide] | 4.5 nM |
| CC(C)[C@@H](CO)NC(=O)c1ccc2c(-c3ccccc3Cl)nn(-c3ccc(F)cc3)c2c1 [Example 69, 3-(2-chlorophenyl)-1-(4-fluorophenyl)-N-[(1S)-1-(hydroxymethyl)-2-methylpropyl]-1H-indazole-6-carboxamide] | 8 nM |
| COC(=O)C1(NC(=O)c2ccc3c(-c4ccccc4Cl)nn(-c4ccc(F)cc4)c3c2)CCCC1 [Example 63, methyl 1-({[3-(2-chlorophenyl)-1-(4-fluorophenyl)-1H-indazol-6-yl]carbonyl}amino)cyclopentane-carboxylate] | 405 nM |
| CC1(NC(=O)c2ccc3c(-c4ccccc4Cl)nn(-c4ccccn4)c3c2)CCS(=O)(=O)C1 (single isomer, unassigned) [Example 174-B, 3-(2-chlorophenyl)-N-(3-methyl-1,1-dioxidotetrahydrothiophen-3-yl)-1-pyridin-2-yl-1H-indazole-6-carboxamide] | 75 nM |
| COc1cccc(-c2nn(-c3ccc(F)cc3)c3cc(C(=O)NC4CCS(=O)(=O)C4)ccc23)c1 (single isomer, unassigned) [Example 131-A, N-(1,1-dioxidotetrahydrothiophen-3-yl)-1-(4-fluorophenyl)-3-(3-methoxyphenyl)-1H-indazole-6-carboxamide] | 3 nM |
| N[C@H]1CS(=O)(=O)C[C@@H]1NC(=O)c1ccc2c(-c3ccccc3Cl)nn(-c3ccc(F)cc3)c2c1 [Example 8, N-[(3R,4R)-4-amino-1,1-dioxidotetrahydrothiophen-3-yl]-3-(2-chlorophenyl)-1-(4-fluorophenyl)-1H-indazole-6-carboxamide] | 554 nM |
| O=C(NC1CCS(=O)(=O)CC1)c1ccc2c(-c3ccccc3Cl)nn(-c3ccc(F)cc3)c2c1 [Example 24, 3-(2-chlorophenyl)-N-(1,1-dioxidotetrahydro-2H-thiopyran-4-yl)-1-(4-fluorophenyl)-1H-indazole-6-carboxamide] | 61 nM |
| N#Cc1cccc(-c2nn(-c3ccc(F)cc3)c3cc(C(=O)NC4CCS(=O)(=O)C4)ccc23)c1 (single isomer, unassigned) [Example 129-A] | 10 nM |
| O=C(NCCS(=O)(=O)NCc1ccccc1)c1ccc2c(-c3ccccc3Cl)nn(-c3ccc(F)cc3)c2c1 [Example 54, N-[2-(benzylsulfamoyl)ethyl]-3-(2-chlorophenyl)-1-(4-fluorophenyl)-1H-indazole-6-carboxamide] | 121 nM |
| C[C@@H](NC(=O)c1ccc2c(-c3ccccc3Cl)nn(-c3ccc(F)cc3)c2c1)c1cnc(C(F)(F)F)nc1 [Example 4, 3-(2-chlorophenyl)-1-(4-fluorophenyl)-N-{(1R)-1-[2-(trifluoromethyl)pyrimidin-5-yl]ethyl}-1H-indazole-6-carboxamide] | 67 nM |
| CC1(NC(=O)c2ccc3c(-c4ccccc4)nn(-c4ccc(F)cc4)c3c2)CCS(=O)(=O)C1 (single isomer, unassigned) [Example 162-A, 1-(4-fluorophenyl)-N-(3-methyl-1,1-dioxidotetrahydrothiophen-3-yl)-3-phenyl-1H-indazole-6-carboxamide] | 157 nM |
| CC1(NC(=O)c2ccc3c(-c4cccc(C#N)c4)nn(-c4ccc(F)cc4)c3c2)CCS(=O)(=O)C1 (single isomer, unassigned) [Example 117-B, 3-(3-cyanophenyl)-1-(4-fluorophenyl)-N-(3-methyl-1,1-dioxidotetrahydrothiophen-3-yl)-1H-indazole-6-carboxamide] | 6.4 nM |
| CC1(NC(=O)c2ccc3c(-c4ccccc4Cl)nn(-c4ccc(F)cn4)c3c2)CCS(=O)(=O)C1 (single isomer, unassigned) [Example 172-B, 3-(2-chlorophenyl)-1-(5-fluoropyridin-2-yl)-N-(3-methyl-1,1-dioxidotetrahydrothiophen-3-yl)-1H-indazole-6-carboxamide] | 56 nM |
| CC1(NC(=O)c2ccc3c(-c4ccnc(C(F)(F)F)c4)nn(-c4ccc(F)cc4)c3c2)CCS(=O)(=O)C1 (single isomer, unassigned) [Example 159-A, 1-(4-fluorophenyl)-N-(3-methyl-1,1-dioxidotetrahydrothiophen-3-yl)-3-[2-(trifluoromethyl)pyridin-4-yl]-1H-indazole-6-carboxamide] | 469 nM |
| CC1(NC(=O)c2ccc3c(-c4cc(C(F)(F)F)ccc4Cl)nn(-c4ccc(F)cc4)c3c2)CCS(=O)(=O)C1 (single isomer, unassigned) [Example 160-A, 3-[2-chloro-5-(trifluoromethyl)phenyl]-1-(4-fluorophenyl)-N-(3-methyl-1,1-dioxidotetrahydrothiophen-3-yl)-1H-indazole-6-carboxamide] | 6.9 nM |
| Cc1ncc([C@H](C)NC(=O)c2ccc3c(-c4ccccc4Cl)nn(-c4ccc(F)cc4)c3c2)cn1 [Example 34, 3-(2-chlorophenyl)-1-(4-fluorophenyl)-N-[(1S)-1-(2-methylpyrimidin-5-yl)ethyl]-1H-indazole-6-carboxamide] | 75 nM |
| CC(NC(=O)c1ccc2c(-c3ccccc3Cl)nn(-c3ccc(F)cc3)c2c1)C(O)C(F)(F)F (stereo not shown) [Example 81, 3-(2-chlorophenyl)-1-(4-fluorophenyl)-N-(3,3,3-trifluoro-2-hydroxy-1-methylpropyl)-1H-indazole-6-carboxamide] | 88 nM |
| O=C(N[C@@H](CO)[C@@H](O)c1ccccc1)c1ccc2c(-c3ccccc3Cl)nn(-c3ccc(F)cc3)c2c1 [Example 80, 3-(2-chlorophenyl)-1-(4-fluorophenyl)-N-[(1S,2S)-2-hydroxy-1-(hydroxymethyl)-2-phenylethyl]-1H-indazole-6-carboxamide] | 127 nM |
| CC(C)(C)OC(=O)N1CC[C@H](NC(=O)c2ccc3c(-c4ccccc4Cl)nn(-c4ccc(F)cc4)c3c2)C1 [Example 100, tert-butyl (3S)-3-({[3-(2-chlorophenyl)-1-(4-fluorophenyl)-1H-indazol-6-yl]carbonyl}amino)pyrrolidine-1-carboxylate] | 12 nM |
| O=C(NCc1cnc(C(F)(F)F)nc1)c1ccc2c(-c3ccccc3Cl)nn(-c3ccc(F)cc3)c2c1 [Example 49, 3-(2-chlorophenyl)-1-(4-fluorophenyl)-N-{[2-(trifluoromethyl)pyrimidin-5-yl]methyl}-1H-indazole-6-carboxamide] | 79 nM |
| COC[C@H](NC(=O)c1ccc2c(-c3ccccc3Cl)nn(-c3ccc(F)cc3)c2c1)[C@@H](O)c1ccccc1 [Example 74, 3-(2-chlorophenyl)-1-(4-fluorophenyl)-N-[(1S,2S)-2-hydroxy-1-(methoxymethyl)-2-phenylethyl]-1H-indazole-6-carboxamide] | 16 nM |
| C[C@H](NC(=O)c1ccc2c(-c3ccccc3Cl)nn(-c3ccc(F)cc3)c2c1)c1cnc(C(F)(F)F)nc1 [Example 50, 3-(2-chlorophenyl)-1-(4-fluorophenyl)-N-{(1S)-1-[2-(trifluoromethyl)pyrimidin-5-yl]ethyl}-1H-indazole-6-carboxamide] | 34 nM |
| CC(C)[C@@H](CO)NC(=O)c1ccc2c(-c3cc(C#N)ccc3Cl)nn(-c3ccc(F)cc3)c2c1 [Example 123, 3-(2-chloro-5-cyanophenyl)-1-(4-fluorophenyl)-N-[(1S)-1-(hydroxymethyl)-2-methylpropyl]-1H-indazole-6-carboxamide] | 3.8 nM |
| O=C(N[C@@H]1C[C@H](CO)[C@@H](O)[C@H]1O)c1ccc2c(-c3ccccc3Cl)nn(-c3ccc(F)cc3)c2c1 [Example 87, 3-(2-chlorophenyl)-N-[(1R,2S,3R,4R)-2,3-dihydroxy-4-(hydroxymethyl)cyclopentyl]-1-(4-fluorophenyl)-1H-indazole-6-carboxamide] | 198 nM |

Source: patent US11104690B2, “Indazole derivatives useful as inhibitors of diacylglyceride O-acyltransferase 2” (Merck Sharp & Dohme Corp., priority 2016, dated 2021)
